Reference: patent US11344603B2, “Cytokine modulation” (AUCKLAND UNISERVICES LIMITED, priority 2017, dated 2022)
Entries after “also recorded” stand apart in the source; their conditions may differ.

Legend:
ARPE-19 cells [1] = test: VEGF secretion by ARPE-19 cells; format: cell-based, human; conditions: for VEGF release: high glucose + cytokines + Peptagon, versus basal
Protocol: (§1) Human adult retinal pigmented epithelial cells (ARPE-19; American Type Culture Collection, Manassas, Va.) were cultured in Dulbecco's Modified Eagle Medium Nutrient Mixture F-12 medium (DMEM-F12; Thermofisher Scientific Inc., USA) supplemented with 10% foetal bovine serum (FBS; Invitrogen) and a 1× antibiotics and antimycotics mixture (AA, 100× stock) at 37° C. in a humidified 5% C02 incubator. Cells were grown in T75 flasks and the medium was changed twice per week until confluent and ready for experimentation.
(§2) At passage 6-12, cells were plated at 2.5×10^5 cells/mL in 8-well chamber slides for immunohistochemical studies or 24-well plates for ATP release assay and cytometric bead array analysis. Once confluent, the culture medium was changed to treatments in serum-free DMEM-F12 containing 1×AA. Some cultures were challenged with 15 mM glucose (High glucose (high glucose) group), a combination of pro-inflammatory cytokines 10 ng/mL TNF-α (Peprotech, USA) and 10 ng/mL IL-1β (Peprotech, USA) (Cytokines group), or a combination of high glucose, 10 ng/mL TNF-α and 10 ng/mL IL-1β (high glucose+Cytokines group). The untreated group received a medium change with no additional treatments (Basal group). All assessments were carried out 24 h post-treatment.
(§3) Peptide5 (H-Val-Asp-Cys-Phe-Leu-Ser-Arg-Pro-Thr-Glu-Lys-Thr-OH (SEQ ID NO: 1); China Peptides, China) was administered to cells challenged with high glucose and pro-inflammatory cytokines. Concentration-dependent effects were studied at 5, 10, 25 and 50 μM of […] after 24 h. […] O'Carroll, S J, et al. Connexin43 mimetic peptides reduce swelling, astrogliosis, and neuronal cell death after spinal cord injury. Cell communication & adhesion, 15:27-42 (2008).

connexin 43 hemichannels = conditions: cited from earlier work
[2] = system: NLRP3 inflammasome complex; test: Immunohistochemical labelling and quantification of NLRP3 inflammasome complexes; format: cell-based, human; conditions: 24 h
Protocol: At passage 6-12, cells were plated at 2.5×10^5 cells/mL in 8-well chamber slides for immunohistochemical studies or 24-well plates for ATP release assay and cytometric bead array analysis. Once confluent, the culture medium was changed to treatments in serum-free DMEM-F12 containing 1×AA. Some cultures were challenged with 15 mM glucose (High glucose (high glucose) group), a combination of pro-inflammatory cytokines 10 ng/mL TNF-α (Peprotech, USA) and 10 ng/mL IL-1β (Peprotech, USA) (Cytokines group), or a combination of high glucose, 10 ng/mL TNF-α and 10 ng/mL IL-1β (high glucose+Cytokines group). The untreated group received a medium change with no additional treatments (Basal group). All assessments were carried out 24 h post-treatment. After 24 h of incubation in treatment media, cells were fixed with 4% paraformaldehyde for 10 min and permeabilised with 0.1% Triton X-100 in phosphate buffer saline (PBS) for 10 min. Cells were then incubated with mouse anti-NLRP3 (1:100; Abcam, USA) at 4° C. overnight followed by washing in PBS three times for 15 min. Goat anti-mouse Cy3 (1:500; Jackson Immuno Research, USA) secondary antibodies were applied to the slides and incubated at room temperature for 3 h. […] For NLRP3 immunohistochemical analysis, four images were analysed per well and the entire experiment was repeated three times. […] The number of NLPR3 spots were counted for each image.

ARPE-19 cells [3] = test: ATP release assay (ATPlite luminescence); format: cell-based, human; conditions: high glucose + cytokines, 24 h, compared to high glucose and cytokines
Protocol: as §1
At passage 6-12, cells were plated at 2.5×10^5 cells/mL in 8-well chamber slides for immunohistochemical studies or 24-well plates for ATP release assay and cytometric bead array analysis. Once confluent, the culture medium was changed to treatments in serum-free DMEM-F12 containing 1×AA. […]
After 24 h of incubation in treatment media, ATP release was measured in triplicates using 50 μL of culture medium taken from duplicate wells of 24-well plates. […] ATP released into the culture medium was measured using the ATPlite Luminescence ATP Detection Assay System as per manufacturer instructions (PerkinElmer, USA). ATP release (%) in Peptide5 treated cultures (treated group) were calculated relative to cells treated with high glucose and cytokines (injury group) using the formula: (OD490 of treated group−OD490 of injury group)/(OD490 of injury group)×100%.

ARPE-19 cells [4] = test: Cytokine and chemokine measurement by Cytometric Bead Array in ARPE-19 incubation medium; format: cell-based, human
Protocol: as §1, §2, §3
Soluble cytokines and chemokines in the ARPE-19 incubation medium were measured simultaneously using multiplexed bead-based immunoassays, Cytometric Bead Array (CBA, BD Biosciences, USA). Three tests of 50 μL volume was taken from duplicate cultures in 24-well plates after 24 h and transferred into a 96-well plate to be used for the CBA assay. The analysis included six tests per group. The assay was conducted according to the manufacturer's instructions. Briefly, a ten-point standard curve ranging from 0 to 5000 pg/mL for each cytokine was prepared using the cytokine standard provided in each kit. The cytokines measured were human soluble CD54 (sICAM-1, cat #560269, BD Biosciences, USA), IL-6 (cat #558276), IL-8 (cat #558227), and MCP-1 (cat #558287). Samples and cytokine standards were incubated in the capture bead mixture for 1 h and Phycoerythrin (PE)-conjugated antibodies against each cytokine were added to the sample-bead mixture for 2 h incubation at room temperature. All buffers used were from the CBA human soluble protein master buffer kit (cat #558265, BD Biosciences, USA). Beads were washed and analysed using an Accuri C6 flow cytometer (BD Biosciences, USA). Mean fluorescence intensity for each bead cluster was converted into cytokine concentrations based on the ten-point standard curve using FCAP Array™ software (BD version 3.1) as described previously (O'Carroll et al., 2015).

[5] = target: Cx43 carboxy-terminal domain (Rattus norvegicus, UniProt P08050); conditions: low pH conditions; Verma et al. 2009, 2010; cited from earlier work
[6] = high glucose + cytokines (10 ng/mL TNF-α, 10 ng/mL IL-1β), Peptagon 5, 10, 25, 50 μM, 24 h
[7] = high glucose + cytokines, 5, 10, 25, 50 μM, 24 h
[8] = high glucose + cytokines, Peptagon 25 μM, 24 h
[9] = 10 nM exogenous ATP alone, mean ± SD
[10] = high glucose + cytokines + Peptagon 25 μM + ATP 10 nM, 24 h

Sequence of Cx43 carboxy-terminal domain (P08050 whole entry, the tested form may be a part): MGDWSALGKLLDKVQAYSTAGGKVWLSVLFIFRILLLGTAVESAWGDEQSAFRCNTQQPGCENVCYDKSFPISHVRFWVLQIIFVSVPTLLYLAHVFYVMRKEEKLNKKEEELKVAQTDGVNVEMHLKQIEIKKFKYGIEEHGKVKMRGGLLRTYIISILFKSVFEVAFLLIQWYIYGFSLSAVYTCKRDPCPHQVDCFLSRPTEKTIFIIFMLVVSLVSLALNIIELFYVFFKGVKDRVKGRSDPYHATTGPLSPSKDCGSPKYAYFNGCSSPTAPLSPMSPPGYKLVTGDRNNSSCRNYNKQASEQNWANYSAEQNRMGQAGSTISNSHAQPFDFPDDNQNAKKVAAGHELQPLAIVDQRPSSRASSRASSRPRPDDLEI

## H-Val-Asp-Cys-Phe-Leu-Ser-Arg-Pro-Thr-Glu-Lys-Thr-OH (H-VDCFLSRPTEKT-OH) [Peptagon]
ARPE-19 cells [1]; 24 h
  VEGF release: restored VEGF secretion back to basal levels
ARPE-19 cells [1]; 24 h, listed as Peptide5
  VEGF release: completely arrested
Connexin 43 hemichannels; 5, 10, 25 and 50 μM, O'Carroll et al. 2008
  connexin 43 hemichannel block versus gap junction coupling: block connexin 43 hemichannels with minimal effect on gap junction cell-cell coupling
Connexin 43 hemichannels; O'Carroll et al., 2008
  dose dependent action on hemichannels and gap junctions: lower doses blocking gap junction hemichannel opening and higher doses uncoupling gap junctions between cells
[2]; high glucose + inflammatory cytokines
  NLRP3 inflammasome assembly: blocked inflammasome assembly
ARPE-19 cells [3]
  ATP release: significantly reduced
ARPE-19 cells [3]; listed as Peptide5
  ATP release: prevented
ARPE-19 cells [4]; [6]
  IL-6 secretion: significantly reduced
  IL-8 secretion: significantly reduced
  MCP-1 secretion: significantly reduced
  sICAM-1 secretion: significantly reduced; also recorded: decrease
ARPE-19 cells [4]; [7]
  concentration dependence of decrease in IL-6, IL-8 and MCP-1 secretion: slight trend towards a concentration-dependent decrease; also recorded: concentration-dependent manner
  concentration dependence of decrease in sICAM-1 secretion: all peptide concentrations had the same effect
ARPE-19 cells [4]; [8]
  IL-6 secretion: reduced secretion
  IL-8 secretion: reduced secretion
  MCP-1 secretion: reduced secretion
  sICAM-1 secretion: reduced secretion

## Nc1ncnc2c1ncn2[C@@H]1O[C@H](COP(=O)(O)OP(=O)(O)OP(=O)(O)O)[C@@H](O)[C@H]1O [ATP]
ARPE-19 cells [1]; 10 nM exogenous ATP alone
  change in VEGF secretion compared to basal conditions: no change
ARPE-19 cells [1]; [9]
  VEGF secretion in response to extracellular ATP: 56.62 ± 8.94 pg/mL
ARPE-19 cells [1]; high glucose + cytokines + Peptagon + exogenous ATP, 24 h
  effect of exogenous ATP on Peptagon hemichannel block effect on VEGF release: completely overrode; also recorded: negated hemichannel blocker-mediated protection against VEGF release
[2]; high glucose + cytokines + Peptagon + 10 nM ATP
  effect of exogenous ATP on Peptagon block of NLRP3 inflammasome assembly: overrode the hemichannel blocker treatment
ARPE-19 cells [4]; 10 nM exogenous ATP alone
  change in IL-6 secretion compared to basal conditions: no change
  change in IL-8 secretion compared to basal conditions: no change
  change in sICAM-1 secretion compared to basal conditions: no change
ARPE-19 cells [4]; [9]
  IL-6 secretion in response to extracellular ATP: 8.22 ± 2.25 pg/mL
  IL-8 secretion in response to extracellular ATP: 67.70 ± 11.44 pg/mL
  MCP-1 secretion in response to extracellular ATP: 230.72 ± 37.08 pg/mL
  sICAM-1 secretion in response to extracellular ATP: 0 pg/mL
ARPE-19 cells [4]; 10 nM exogenous ATP alone, p≤0.0001
  change in MCP-1 release compared to basal conditions: decrease
ARPE-19 cells [4]; [10]
  effect of exogenous ATP on Peptagon-mediated protection against IL-6 release: back towards injury levels; also recorded: reversed
  effect of exogenous ATP on Peptagon-mediated protection against IL-8 release: back towards injury levels; also recorded: reversed
  effect of exogenous ATP on Peptagon-mediated protection against MCP-1 release: back towards injury levels; also recorded: reversed
  effect of exogenous ATP on Peptagon-mediated protection against sICAM-1 release: did not reach statistical significance

## RRNYRRNY [linear peptide RRNYRRNY targeting the Cx43 carboxy-terminal domain]
[5]
  Cx43-based gap junction closure: prevent Cx43-based gap junction closure under low pH conditions
